Entries after “also recorded” stand apart in the source; their conditions may differ.
Legend:
heme oxygenase-1 (HO-1) = assay: Western blotting of HO-1 expression in CCD 841 CoN cells; type: cell-based, human
Procedure: Human normal colonic epithelial cells (CCD 841 CoN) were grown in Eagle's Minimum Essential Medium with 10% fetal bovine serum and 1% penicillin/streptomycin, and maintained at 37° C. in a 100% humidified atmosphere of 5% CO2 and 95% air. Fresh growth medium was added to the cells every two days until confluent. Cells were planted in 145×20 mm flat-bottomed tissue culture dishes and growth to 70-80% confluence and then treated with compound 27 for various doses and time points. At the end of incubation period, cell lysates were prepared in ice-cold Cell Lysis Buffer (Cell Signaling, Danvers, Mass., United States of America) with 1% protease inhibitor cocktail and 1% phenylmethylsulfonyl fluoride (Sigma, St. Louis, Mo., United States of America). Protein concentrations were measured using BCA Protein Assay Kit (Thermo Scientific, Rockford, Ill., United States of America). […] The bound complexes were detected with SuperSignal Chemiluminescent Substract (Thermo Scientific, Rockford, Ill., United States of America). The immunoblot bands were quantified by densitometry analysis, and the ratio to β-actin was calculated and presented.

[1] = Cysteine conjugates in mouse urine after oral gavage (LC/MS); type: in vivo; settings: oral gavage 200 mg/kg, urine collected in 24 h
Procedure: LC/MS analysis was carried out with a Thermo-Finnigan Spectra System, which consisted of an Accela high speed MS pump, an Accela refrigerated autosampler, and an LCQ Fleet ion trap mass detector (Thermo Electron, San Jose, Calif., United States of America) incorporated with an electrospray ionization (ESI) interface. A Gemini-NX C18 column (150 mm×4.6 mm i.d., 5 μm; Phenomenex, Torrance, Calif., United States of America) was used for separation at a flow rate of 0.3 mL/min. The column was eluted with 100% A (5% aqueous methanol with 0.2% formic acid) for 1 min, followed by linear increases in B (95% aqueous methanol with 0.2% formic acid) to 55% from 1 to 4 min, to 85% from 4 to 25 min, then to 100% B from 25 to 30 min, and then with 100% B from 30 to 35 min. The column was then re-equilibrated with 100% A for 5 min. The LC eluent was introduced into the ESI interface. The positive ion polarity mode was set for the ESI source with the voltage on the ESI interface maintained at approximately 4.6 kV. Nitrogen gas was used as the sheath gas and auxiliary gas. […] The mass range was measured from 100 to 800 m/z. […]
Enzymatic deconjugation of mouse urine was performed as described previously with slight modifications. […] The resulting suspension was centrifuged at 17,000 g for 5 min, and 10 μL of supernatant was analyzed directly by LC/MS.

[2] = Biotransformation of xenobiotics in zebrafish embryos (LC/MS); type: in vivo; settings: 5 μM in incubation medium, 8 hpf to 24 hpf
Procedure: Fifty zebrafish embryos at the 8 hour-post-fertilization (hpf) stage were incubated at 28.5° C. in 0.3× Danieau's solution (19.3 mM NaCl, 0.23 mM KCl, 0.13 mM MgSO4, 0.2 mM Ca(NO3)2, 1.7 mM HEPES, pH 7.0) with or without 5 μM 18 and 25-27, respectively. At 24 hpf, embryos were dechorionated manually and the chorions were carefully removed one by one from the culture medium. The zebrafish embryos were harvested and kept at −80° C. till analyzed by LC/MS.
200 μL Sodium acetate buffer solution (pH 5.0) was added to 50 zebrafish embryos. Samples were homogenized for 90 s by an Omni Bead Ruptor Homogenizer (Kennesaw, Ga., United States of America). 10 μL 10% ascorbic acid and 300 μL sodium acetate buffer were added to the homogenates. The mixture was incubated in the presence of β-glucuronidase (250 U) and sulfatase (3 U) at 37° C. for 45 min, and then 600 μL MeOH with 1% acetic acid was added. The resulting mixture was vortexed for 30 s and then centrifuged at 17000 g for 10 min. The supernatant was removed and evaporated under a gentle stream of nitrogen. The residue was reconstituted in 150 μL 90% MeOH with 0.2% acetic acid (AA), and 10 μL was analyzed directly by LC/MS.
LC/MS analysis was carried out with a Thermo-Finnigan Spectra System, which consisted of an Accela high speed MS pump, an Accela refrigerated autosampler, and an LCQ Fleet ion trap mass detector (Thermo Electron, San Jose, Calif., United States of America) incorporated with an electrospray ionization (ESI) interface. A Gemini-NX C18 column (150 mm×4.6 mm i.d., 5 μm; Phenomenex, Torrance, Calif., United States of America) was used for separation at a flow rate of 0.3 mL/min. The column was eluted with 100% A (5% aqueous methanol with 0.2% formic acid) for 1 min, followed by linear increases in B (95% aqueous methanol with 0.2% formic acid) to 55% from 1 to 4 min, to 85% from 4 to 25 min, then to 100% B from 25 to 30 min, and then with 100% B from 30 to 35 min. The column was then re-equilibrated with 100% A for 5 min. The LC eluent was introduced into the ESI interface. The positive ion polarity mode was set for the ESI source with the voltage on the ESI interface maintained at approximately 4.6 kV. Nitrogen gas was used as the sheath gas and auxiliary gas. Optimized source parameters, including capillary temperature (260° C.), sheath gas flow rate (31 arbitrary units), auxiliary gas flow rate (16 units), tube lens (34 V), and capillary voltage 9 V, were tuned using authentic samples. The collision-induced dissociation (CID) was conducted with an isolation width 2 Da and normalized collision energy of 35 for MS^2. The mass range was measured from 100 to 800 m/z. Data acquisition was performed with Xcalibur version 2.0 (Thermo Electron, San Jose, Calif., United States of America).

With `CCCCCCCC(=O)/C=C/c1ccc(O)c(O)c1` [Compound 27] the “HO-1 protein expression, time dependence” value (heme oxygenase-1 (HO-1); CCD 841 CoN cells, 10 μM for 3, 6, 12 and 24 h, vs control, p<0.05 for all time points) was “significantly increased HO-1 expression; also recorded: increased HO-1 expression in a time-dependent manner”, the “HO-1 protein expression, dose dependence” value (heme oxygenase-1 (HO-1); CCD 841 CoN cells, 5, 10 and 20 μM for 24 h, vs untreated control, p<0.05 for all concentrations) was “significantly increased HO-1 protein expression; also recorded: increased HO-1 expression in a dose-dependent manner” and the “Cysteine conjugates (metabolites) detected in mouse urine” value [1] was “conjugate 36 and its reduced form 36a, three additional conjugates 37, 37a, and 37b”. For the same compound, the “Cysteine conjugates (metabolites) detected in zebrafish embryos” value [2] was “four cysteine conjugates 36, 36a, 37, and 37b”.

Source: patent US10363230B2, “6-shogaol derivatives and activities thereof” (North Carolina Agricultural and Technical State University, priority 2017, dated 2019)
